In assay [1] the test system is Adult and microfilariae B. pahangi. As to the kind of experiment: In vitro parasite motility assay, B. pahangi adult worms and microfilariae. In kind it is cell-based, Brugia pahangi.
Assay [2] relates to Adult and microfilariae B. malayi. The assay can be described thus: In vitro parasite motility assay, B. malayi adult worms and microfilariae. Particulars: Brugia malayi, read-out: B. malayi Activity class. In kind it is cell-based.
In assay [3] the test system is Onchocerca gutturosa adult male worms. As to the kind of experiment: Onchocerca gutturosa in vitro screening model: adult worm motility score and MTT/formazan viability. In kind it is cell-based.
The subject of assay [4] is Dirofilaria immitis. As to the kind of experiment: Heartworm screen Dirofilaria immitis (stage DiMF/DiL4 not specified in the tables). In kind it is cell-based. Particulars: read-out: D. immitis Activity class.
[5] abbreviates: read-out: O. gutt Activity class.

Structures are written as SMILES. Read-outs that look alike come from different tables or passages of the source.

`Cn1cc(S(=O)(=O)Nc2cccc3cccnc23)cn1` [Compound 268, 1-methyl-N-(quinolin-8-yl)-1H-pyrazole-4-sulfonamide]: the “B. phange Activity class” value in assay [1] (activity against microfilaria (level D)) is “D (activity against microfilaria at compound concentrations below 1 μM (activity level D))”. Further, the IC50 in assay [2] fell in the range of 500 to 5000 nM.
Take `O=S(=O)(Nc1cccc2cccnc12)c1cn[nH]c1` [Compound 267, N-(quinolin-8-yl)-1H-pyrazol-4-sulfonamide]: in assay [2], the IC50 is 500 to 5000 nM.
In the case of `Cc1cccnc1S(=O)(=O)Nc1c(Cl)ccc2cccnc12` [Compound 100, N-(7-chloro-quinolin-8-yl)-3-methylpyr-idine-2-sulfon-amide], the IC50 is less than 200 nM in assay [3] (setting [5]) and 500 to 5000 nM in assay [4].
In the same order, the values of `Cc1ccc(S(=O)(=O)Nc2cc(F)cc3cccnc23)nc1` [Compound 88, N-(6-fluoro-quinolin-8-yl)-5-methyl-pyridine-2-sulfonamide] are 500 to 5000 nM and 500 to 5000 nM.
Consider `Nc1ncccc1S(=O)(=O)Nc1cccc2cccnc12` [Compound 151, 2-amino-N-(quinolin-8-yl)pyridine-3-sulfonamide], for which the IC50 in assay [3] (setting [5]) and in assay [4] was 500 to 5000 nM each time.
In the case of `O=S(=O)(Nc1cccc2cccnc12)c1ccc(C(F)(F)F)nc1` [Compound 190, N-(quinolin-8-yl)-6-(trifluoromethyl) pyridine-3-sulfonamide], the IC50 in assay [3] (setting [5]) and in assay [4] was less than 200 nM each time.
As to `N#Cc1cccc(S(=O)(=O)Nc2ccc(N3CCOCC3)c3cccnc23)c1` [Compound 80, 3-cyano-N-(5-morpho-linoquinolin-8-yl)ben-zenesulfon-amide], the IC50 in assay [3] (setting [5]) was less than 200 nM; in assay [4], 500 to 5000 nM.
In the same order, the values of `O=S(=O)(Nc1cccc2cccnc12)c1cccc(C(F)(F)F)n1` [Compound 156, N-(quinolin-8-yl)-6-(trifluoromethyl) pyridine-2-sulfonamide] are less than 200 nM and 500 to 5000 nM.
Take `COc1ccnc2c(NS(=O)(=O)c3ccc(C)cn3)cccc12` [Compound 124, N-(4-methoxy-quinolin-8-yl)-5-methylpyr-idine-2-sulfon-amide]: the figures for the IC50 in assay [3] (setting [5]) and in assay [4] were less than 200 nM and 500 to 5000 nM, respectively.
In the same order, the values of `CC(C)(C)c1ccc(S(=O)(=O)Nc2cccc3cccnc23)cn1` [Compound 159, 6-tert-butyl-N-(quinolin-8-yl)pyridine-3-sulfonamide] are less than 200 nM and 200 to 500 nM.
The matching figures for `Cc1cccnc1S(=O)(=O)Nc1cccc2c(C)ccnc12` [Compound 15, 3-methyl-N-(4-methyl-quinolin-8-yl)pyridine-2-sulfonamide]: less than 200 nM and 500 to 5000 nM.
In the same order, the values of `Cc1cnc(C)c(S(=O)(=O)Nc2c(Cl)ccc3cccnc23)n1` [Compound 53, N-(7-chloro-quinolin-8-yl)-3,6-dimethyl-pyrazine-2-sulfonamide] are 500 to 5000 nM and 500 to 5000 nM.
`O=S(=O)(Nc1cccc2cccnc12)c1nccc2ccccc12` [Compound 225, N-(quinolin-8-yl)isoquinoline-1-sulfonamide]: the IC50 in assay [3] (setting [5]) is less than 200 nM; in assay [4], 500 to 5000 nM.
The matching figures for `Cc1nc(S(=O)(=O)Nc2cccc3cccnc23)ccc1Cl` [Compound 184, 5-chloro-6-methyl-N-(quinolin-8-yl)pyridine-2-sulfonamide]: less than 200 nM and 200 to 500 nM.
In the same order, the values of `Cc1ccc(S(=O)(=O)Nc2cc(C)cc3cccnc23)nc1` [Compound 127, 5-methyl-N-(6-methylquin-olin-8-yl)pyr-idine-2-sulfon-amide] are less than 200 nM and 200 to 500 nM.
In the same order, the values of `N#Cc1cccc(S(=O)(=O)Nc2ccc(F)c3cccnc23)c1` [Compound 72, 3-cyano-N-(5-fluoroquin-olin-8-yl)ben-zenesulfon-amide] are less than 200 nM and 500 to 5000 nM.
Regarding `O=S(=O)(Nc1cccc2cccnc12)c1ncccc1F` [Compound 269, 3-fluoro-N-(quinolin-8-yl)pyridine-2-sulfonamide], the IC50 in assay [3] (setting [5]) was less than 200 nM; in assay [4], 500 to 5000 nM. Further, the “B. phange Activity class” value in assay [1] (activity against adult filaria (level E)) is listed as “E (activity against adult filaria at compound concentrations below 1 μM (activity level E))”.
`CCn1cc(C)nc1S(=O)(=O)Nc1cccc2cccnc12` [Compound 191, 1-ethyl-4-methyl-N-(quinolin-8-yl)-1H-imidazole-2-sulfonamide]: the values for the IC50 in assay [3] (setting [5]) and in assay [4] were less than 200 nM and 200 to 500 nM, respectively.
Consider `CCn1ccnc1S(=O)(=O)Nc1c(OC)ccc2cccnc12` [Compound 84, 1-ethyl-N-(7-methoxyquin-olin-8-yl)-1H-imidazole-2-sulfonamide], for which the IC50 in assay [3] (setting [5]) is less than 200 nM; in assay [4], 200 to 500 nM.
In the same order, the values of `Cc1cc(C)c(S(=O)(=O)Nc2cccc3cccnc23)c(Cl)n1` [Compound 177, 2-chloro-4,6-dimethyl-N-(quinolin-8-yl)pyridine-3-sulfonamide] are 500 to 5000 nM and 500 to 5000 nM.
In the same order, the values of `CC(C)c1cccnc1S(=O)(=O)Nc1c(Cl)ccc2cccnc12` [Compound 68, N-(7-chloro-quinolin-8-yl)-3-iso-propylpyr-idine-2-sulfonamide] are less than 200 nM and 500 to 5000 nM.
In the same order, the values of `O=S(=O)(Nc1cccc2cccnc12)c1nccn1C1CC1C(F)(F)F` (stereo not drawn) [Compound 171, N-(quinolin-8-yl)-1-(2-(trifluoromethyl)cyclopropyl)-1H-imidazole-2-sulfonamide] are less than 200 nM and 200 to 500 nM.
Regarding `COc1cc(NS(=O)(=O)c2ccc(C)cn2)c2ncccc2c1` [Compound 125, N-(6-methoxy-quinolin-8-yl)-5-methylpyr-idine-2-sulfon-amide], the results for the IC50 in assay [3] (setting [5]) and in assay [4] were less than 200 nM and 500 to 5000 nM, respectively.
In the same order, the values of `Nc1cccc(S(=O)(=O)Nc2cccc3cccnc23)n1` [Compound 264, 6-amino-N-(quinolin-8-yl)pyridin-2-sulfonamide] are 500 to 5000 nM and 500 to 5000 nM.
The matching figures for `O=S(=O)(Nc1c(Cl)ccc2cccnc12)c1ncccc1F` [Compound 98, N-(7-chloro-quinolin-8-yl)-3-fluoro-pyridine-2-sulfonamide]: less than 200 nM and 500 to 5000 nM.
The matching figures for `Cc1cc(NS(=O)(=O)c2nccn2C(C)C)c2ncccc2c1` [Compound 35]: 200 to 500 nM and 200 to 500 nM.
For `Cc1cccnc1S(=O)(=O)Nc1cccc2c1N(C)CCC2` [Compound 55, 3-methyl-N-(1-methyl-1,2,3,4-tetra-hydroquin-olin-8-yl)-pyridine-2-sulfonamide], the IC50 in assay [3] (setting [5]) and in assay [4] was 500 to 5000 nM throughout.
Take `O=S(=O)(Nc1cccc2cccnc12)c1cccc(Cl)n1` [Compound 221, 6-chloro-N-(quinolin-8-yl)pyridine-2-sulfonamide]: the IC50 in assay [3] (setting [5]) was less than 200 nM; in assay [4], 500 to 5000 nM.
In the case of `Cc1ccnc(S(=O)(=O)Nc2cccc3cccnc23)c1` [Compound 265, 4-methyl-N-(quinolin-8-yl)pyridine-2-sulfonamide], the IC50 in assay [3] (read-out: O. gutt Activity class, in vitro motility) is less than 200 nM; in assay [4] it was 200 to 500 nM.
On to `CCn1ccc(S(=O)(=O)Nc2cccc3cccnc23)n1` [Compound 193, 1-ethyl-N-(quinolin-8-yl)-1H-pyrazole-3-sulfonamide], for which the IC50 in assay [3] (setting [5]) was in the range of 200 to 500 nM; in assay [4] it was 500 to 5000 nM.
The matching figures for `CCn1ccnc1S(=O)(=O)Nc1cccc2cc(F)cnc12` [Compound 109, 1-ethyl-N-(3-fluoroquinolin-8-yl)-1H-imidazole-2-sulfonamide]: less than 200 nM and 200 to 500 nM.
On to `Cc1ncc(S(=O)(=O)Nc2cccc3cccnc23)cc1Cl` [Compound 180, 5-chloro-6-methyl-N-(quinolin-8-yl)pyridine-3-sulfonamide], for which the IC50 in assay [3] (setting [5]) and in assay [4] was 500 to 5000 nM in each case.
Turning to `Cc1ncc(Cl)cc1S(=O)(=O)Nc1cccc2cccnc12` [Compound 181, 5-chloro-2-methyl-N-(quinolin-8-yl)pyridine-3-sulfonamide], the IC50 in assay [3] (setting [5]) lay within 500 to 5000 nM; in assay [4], 200 to 500 nM.
